We go through 39 molecules from PubChem BioAssay (NCI).

Values joined by “and” are separate entries in the source; they are usually repeats but may differ in a detail not shown here. Equal values may be shown once.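 1) Cells in 96-well plates. 2) Compound, 48 h, 5 concentrations. 3) Linear interpolation between surrounding doses. 4) Unreached endpoint = highest concentration. GI50 = concentration required for 50% inhibition of growth. TGI: concentration producing complete growth inhibition.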 A value given as a limit tells only on which side of the number the result lay.

One assay relates to DLD-1 colon. Briefly: NCI anticancer screen, dose series, 48 h.
`CCOC(=O)C(C)(C)Oc1ccc2c(-c3ccccc3)cc(=O)oc2c1`: the TGI is over 100 µM.
Molecule `CCCC1C(=O)CCc2c(OC)ccc(OC)c21` (configuration not stated) returned a TGI of over 100 µM.
On the same count and under the same terms, next, `NC(=O)NO.O.O.O.O.O.O.O.O.O.O.O.[Ge].[Ge].[Ge].[Ge].[Ge].[O]=[Ge].[O]=[Ge].[O]=[Ge].[O]=[Ge].[O]=[Ge][OH]`: over 100 µM; `O=C(Nc1nc2ccc([N+](=O)[O-])cc2s1)C(=O)C(C1OC(=O)c2ccccc21)[N+](=O)[O-]` (configuration not stated): over 100 µM.
On the same count and under the same terms, next, `COc1cc2cc(OC)c3cc4c(cc3c2c(OC)c1OC)OCO4`: 51.5 µM.
For the molecule `CCC[CH2][Sn]([CH2]CCC)([S]c1cccc2cccnc12)[S]c1cccc2cccnc12`, the GI50 is 172 nM and the TGI was 0.382 µM.
Turning to `COC(=O)C1(C(C)C)CCc2c(OC)ccc(OC)c2C1=O` (configuration not stated), the TGI is over 100 µM.

Another assay has as its system DMS 273 small cell lung. Briefly: NCI anticancer screen, dose series, 48 h.
For the molecule `Cc1cnc(NCCCN(C)C)c2c1[nH]c1ccc3cc(O)ccc3c12`, the TGI amounted to 1.24 µM.
On the same count and under the same terms, next, `Cc1c(C(=O)CC(=O)C(=O)Nc2ccccc2C(F)(F)F)[n+](=O)c2ccccc2n1[O-]`: 59.9 µM; `Cc1cc(N(CCC#N)CCC#N)ccc1N=Nc1ccc(S(N)(=O)=O)cc1`: over 100 µM; `Cc1nc2c(ccc3ncccc32)[nH]1`: over 100 µM.
Same read-out and setting: next, `C1=C2/CC[C@H](Sc3ccccc3)C2C2(CCCCC/1)OCCO2` (some centres not stated): over 100 µM.
On the same count and under the same terms, next, `O=C(CCc1nc(=S)[nH][nH]1)Nc1cc(Cl)c(Cl)cc1Cl`: over 100 µM; `CN(C)C(=S)N=C(Nc1ccccc1)Nc1ccccc1`: over 100 µM.
On to `Nc1ccccc1S(=O)(=O)N(CC(=O)O)c1ccccc1`, for which the TGI was over 100 µM.
The same measure, in the same setting: next, `CC1(C)C(=O)/C=C\C(=O)C(C)(C)C2=CC=C(O2)C(C)(C)C(=O)/C=C\C(=O)C(C)(C)C2=CC=C1O2`: over 100 µM.
On the same count and under the same terms, next, `COc1ccccc1N1C(=O)C2c3[nH]c4ccccc4c3C3CCC(C(C)(C)C)CC3C2C1=O` (configuration not stated): over 100 µM.
As for `Cc1cc(NS(=O)(=O)c2ccc(Nc3c4ccccc4nc4c(C(=O)N5CCN(CCOS(C)(=O)=O)CC5)cccc34)cc2)no1`, the TGI is over 100 µM.
Same read-out and setting: the result for `O=C(O)CCC(NC(=O)c1ccc(Nc2nc3ccccc3nc2-c2cccs2)cc1)C(=O)O` (configuration not stated) reads over 100 µM.
On the same count and under the same terms, next, `O=C(Nc1ccccc1)c1c(O)[nH]c(=S)[nH]c1=O`: 78.9 µM; `CCn1c(C)nn2c(=O)c3ccccc3nc2c1=O`: over 100 µM; `COC(=O)/C(C#N)=C1\NC(=O)c2ccccc21`: over 100 µM.
The same measure, in the same setting: next, `O=C(O)CCNCCCNCCC(=O)O`: over 100 µM; `NC1=NCCC1(c1ccccc1)c1ccccn1` (configuration not stated): over 100 µM; `O=C1/C(=C/c2ccc(O)c(O)c2)CCC/C1=C\c1ccc(O)c(O)c1`: 7.2 µM.
For `CCCCCCCCCCCC(=O)OCCOCCOCCOCCOCCOCc1ccccc1`, the TGI was over 100 µM.
For the molecule `CCCCCCCCCCCCCC(=O)OC(/C=C/C(C)C)C(O)C(O)C(OC)C(=O)NC1CCCCN(C)C1=O` (configuration not stated), the GI50 is over 49000 nM; the TGI is 4.98 µM and > 49 µM.
In the case of `CCOC(=O)CCC1(C(=O)OCC)CCCCC1=O` (configuration not stated), the TGI is over 100 µM.
`COC(=O)c1ccccc1NC(=O)C(=O)Cc1nc2c3c(ccc2[nH]c1=O)C(=O)c1ccccc1C3=O` displayed a TGI of 58.1 µM.
`CCOC(=O)C(C)(C)Oc1ccc2c(-c3ccccc3)cc(=O)oc2c1` had a TGI of over 100 µM.
Still for that read-out and setting: the result for `CCCC1C(=O)CCc2c(OC)ccc(OC)c21` (configuration not stated) reads over 100 µM; that for `NC(=O)NO.O.O.O.O.O.O.O.O.O.O.O.[Ge].[Ge].[Ge].[Ge].[Ge].[O]=[Ge].[O]=[Ge].[O]=[Ge].[O]=[Ge].[O]=[Ge][OH]`, over 100 µM.
The same measure, in the same setting: next, `COc1cc2cc(OC)c3cc4c(cc3c2c(OC)c1OC)OCO4`: 35.6 µM.
In the case of `CCC[CH2][Sn]([CH2]CCC)([S]c1cccc2cccnc12)[S]c1cccc2cccnc12`, the GI50 is 177 nM and the TGI was determined as 0.432 µM.

A further assay relates to MDA-N. Briefly: NCI anticancer screen, dose series, 48 h.
`Cc1cnc(NCCCN(C)C)c2c1[nH]c1ccc3cc(O)ccc3c12`: the TGI was found to be 2.21 µM.
Same read-out and setting: the result for `O=[N+]([O-])c1ccc2c(c1)/C(=N/N=C1c3ccccc3Cc3ccccc31)c1cc([N+](=O)[O-])cc([N+](=O)[O-])c1-2` reads 9.38 µM.
Consider `NC(N)=NS(=O)(=O)c1ccc(Nc2c3ccccc3nc3c(C(=O)NCCO)cccc23)cc1`, for which the GI50 is 17.8 µM.
Molecule `O=C(Nc1ccccc1)c1c(O)[nH]c(=S)[nH]c1=O` returned a TGI of 125 µM.
The same measure, in the same setting: the result for `COc1ccc(CC2c3cc4c(cc3CCN2C)OCO4)c(C=O)c1OC` (configuration not stated) reads over 100 µM; that for `O=C1/C(=C/c2ccc(O)c(O)c2)CCC/C1=C\c1ccc(O)c(O)c1`, 14.6 µM.
Take `CC(C)=CCC\C(C)=C/C=C/C(C)=C\C=C\C(C)=C/C=C/C=C(C)\C=C\C=C(C)/C=C/C=C(/C)CCC=C(C)C`: the TGI was over 100 µM.
Consider `C=CCOc1ccc2c(C)cc(=O)oc2c1C`, for which the TGI was over 100 µM.
With `Fc1ccc(NC(=S)SCc2ccc3c(c2)OCO3)cc1F`, the TGI amounted to 34.7 µM.
The same measure, in the same setting: the result for `Cc1ccsc1C(=S)Nc1ccc(Cl)c(/C=N/OC(C)(C)C)c1` reads over 100 µM; that for `CCOC(=O)Cn1c(C(F)(F)F)nc2nc(Cl)c(Cl)nc21`, over 100 µM; that for `COc1cc2c(c3oc4c(O)cccc4c(=O)c13)CC(C(C)(O)CO)O2` (configuration not stated), over 100 µM.
Same read-out and setting: next, `Cc1ccc(Cl)c2c(N=Nc3ccccc3[N+](=O)[O-])c(O)[nH]c12`: over 100 µM.

The next assay concerns HOP-18 NSCLC. Briefly: NCI anticancer screen, dose series, 48 h.
As to `Cc1cnc(NCCCN(C)C)c2c1[nH]c1ccc3cc(O)ccc3c12`, the TGI was 5.97 µM.
With `Cc1c(C(=O)CC(=O)C(=O)Nc2ccccc2C(F)(F)F)[n+](=O)c2ccccc2n1[O-]`, the TGI is 37 µM.
On the same count and under the same terms, the result for `Cc1cc(N(CCC#N)CCC#N)ccc1N=Nc1ccc(S(N)(=O)=O)cc1` reads over 100 µM; that for `Cc1nc2c(ccc3ncccc32)[nH]1`, over 100 µM.
Same read-out and setting: next, `C1=C2/CC[C@H](Sc3ccccc3)C2C2(CCCCC/1)OCCO2` (some centres not stated): over 100 µM; `Nc1ccccc1S(=O)(=O)N(CC(=O)O)c1ccccc1`: over 100 µM.
Consider `CC1(C)C(=O)/C=C\C(=O)C(C)(C)C2=CC=C(O2)C(C)(C)C(=O)/C=C\C(=O)C(C)(C)C2=CC=C1O2`, for which the TGI is over 100 µM.
